Test results published in patent publication EP4670735A1, “PRODRUG NANOPARTICLE FOR TUMOR-TARGETED ULTRASOUND-[…] THERAPY” (Schleuning, Christian, priority 2024, dated 2025).

Tests used:
[1] = tested on: human breast cancer (MCF-7) cells; test: Cytotoxicity (MTT) in the dark or upon exposure to ultrasound radiation; format: cell-based; conditions: 4 h incubation, then 44 h, concentrations correspond to the platinum complex
Method: (§1) 6 × 10^3 cells were seeded onto 96-well plates and allowed to adhere overnight. The cells were treated with increasing concentrations of the compound which was diluted in cell media to a total volume of 200 µL. The cells were incubated with the compound for 4 h and after this time the medium refreshed. The cells for the dark group were grown for an additional 44 h at 37 °C. The cells for the ultrasound group were exposed to ultrasound radiation (1.5 W/cm^2, 2 min) with an Intelect Mobile 2 Ultrasound Emitter (DJO Global). The cells for the ultrasound group were grown for an additional 44 h at 37 °C. After this incubation time, the culture medium was substituted with PBS buffer containing 3-(4,5-dimethylthiazol-2-yl)-2,5-diphenyltetrazolium bromide (MTT) with a final concentration of 12 µM. The cells were incubated for 2 h at 37 °C and 10 % CO2 After this time, the DPBS-MTT mixture was removed and the wells filled with 200 µL DMSO. Using a 620 nm reference wavelength, the absorption of the formazan was measured at 550 nm with an Infinite M Nano plus Microplate reader (Tecan).
(§2) In contrast, the nanoparticles induced a cytotoxic effect upon exposure to ultrasound radiation. Table 1 reflects the respective data, which are also visualized in Fig. 3. Table 1: Cytotoxicity (IC50 in µM) of oxaliplatin, NP-Pt-1 and NP-Pt-2 in the dark or upon exposure to ultrasound radiation in mouse colon carcinoma (CT-26) and human breast cancer (MCF-7) cells. The mentioned concentrations correspond to the platinum complex.

[2] = tested on: mouse colon carcinoma (CT-26) cells; test: as above; format: cell-based; conditions: 4 h incubation, then 44 h, concentrations correspond to the platinum complex
Method: as §1, §2

## O=C1[O][Pt]2([NH][C@@H]3CCCC[C@H]3[NH]2)[O]C1=O [Oxaliplatin]
[1]; MCF-7, dark, 2880 min
  IC50: 24.5 ± 4.6 µM
[1]; MCF-7, ultrasound (1.5 W/cm^2, 2 min)
  IC50: 22.4 ± 4.8 µM
[2]; CT-26, dark, 2880 min
  IC50: 20.4 ± 3.1 µM
[2]; CT-26, ultrasound (1.5 W/cm^2, 2 min)
  IC50: 19.3 ± 3.4 µM
